According to patent US12139488B2, “Pyrido[3,2-d]pyrimidine compounds uses thereof for treating a proliferative disease” (Universite de Montreal, priority 2021, dated 2024):
Like-named read-outs stand apart in the source and are kept apart here.

Key:
Type in all cases: cell-based, human
A375 cells (BRAF V600E) = assay: Proliferation inhibition (CellTiter-Glo), A375; conditions: A375, 3 days, read-out: A375 Prolif. EC50
Protocol: (§1) All cancer cell lines (A375, A101D, A2058, RKO, HT29 SK-MEL 30, IPC298, HepG2, HCT-116, Lovo, SWV620, SW480, NCI-H358, NCI-H2122, Calu-6, NCIH2087, NCIH1755, NCIH1666 and Mewo) were obtained from ATCC and cultured in RPMI-1640 medium (Gibco) supplemented with 5% heat inactivated fetal bovine serum (FBS, Wisent) at 37° C. under 5% CO2. Cells were maintained in T175 flasks (Greiner). They were passaged by removing the culture medium, washing once in 10 mL of room temperature Phosphate Buffered Saline (PBS; Wisent) and incubating at 37° C. with 2 mL of 0.05% Trypsin (Thermo-Fisher). Trypsin was then inactivated by adding complete growth medium and the cells were then replated in a T175 culture dish at the appropriate dilution. All cell lines were routinely tested for mycoplasma contamination. Tissue type and mutational status of each cell line can be found in Table B.
(§2) CellTiter-Glo® viability analysis was conducted on cells plated in 100 μL of complete RPMI-1640 growth medium in 96-well flat-bottomed white opaque plates (Greiner or Croning) at a density indicated in Table E (for each CCL, number of cells plated per well of a 96-well plate to perform the CellTiter-Glo® cell viability assay). The cell density in cells/cm^2 would correspond to cell number divided by the area of one well of a 96-well plate (0.32 cm^2). […]
(§3) After 3 days of incubation, the growth media were removed by aspiration and 60 μL of diluted CellTiter-Glo® reagent (10 μL CellTiter-Glo® reagent+50 μL of PBS) was added to each well. […] Luminescence signals were then acquired on a Synergy Neo2 plate reader (Biotek).
(§4) The effect of each compound dilution on the proliferation of cancer cell lines was expressed in % inhibition and calculated as follows. […]
(§5) The ability of each compound to inhibit proliferation was expressed as a EC50 value obtained by plotting the effect values for each data point of a dilution series and fitting the obtained curves using a log(agonist) versus response-variable slope (four parameters) function using GraphPadPrism (V7.0) or Dotmatics Screening Ultra platform.

[1] = system: SK-MEL30 cells (NRAS-Q61K); assay: Proliferation inhibition (CellTiter-Glo), SK-MEL30; conditions: SK-MEL30, 3 days, read-out: SK-MEL30 Prolif. EC50
Protocol: as §1, §2, §3, §4, §5

[2] = system: pERK in SK-MEL30 cells (NRAS-Q61K); assay: Phospho-ERK inhibition (AlphaLISA), SK-MEL30; conditions: for SK-MEL30 pERK % Ymin: SK-MEL30, value in parentheses
Protocol: as §1
AlphaLISA® SureFire® Ultra™ p-ERK 1/2 (Thr202/Tyr204) analysis was conducted on cells plated in 100 μL of complete RPMI-1640 growth medium in 96-well flat-bottomed transparent dishes (Costar) at a density indicated in Table C. Cells were maintained overnight at 37° C. under 5% CO2 before treatment with compounds' dilution series for one hour. The cell density in cells/cm^2 corresponds to cell number divided by the area of one well of a 96-well plate ([…]).
In a dilution series 100 μL/well of test substance dilution prepared in complete RPMI-1640 growth media was added to the cells. The dilution series is selected so that ten concentrations cover a range from 10 μM to 0.33 nM. If necessary the initial concentration of 10 μM is increased to 100 μM or lowered to 1 μM (as in the case of A375 and H1666 cells, which are generally more sensitive to the compounds) and further dilution is carried out accordingly. The final concentration of DMSO in the assay is set at 0.5%.
After treatment, media was removed and cells were lysed in 50 μL of 1× AlphaScreen Ultra Lysis Buffer (Perkin Elmer). The AlphaLISA® SureFire® Ultra™ p-ERK 1/2 (Thr202/Tyr2O4) (PerkinElmer) reactions were performed with 5 μL of cell lysate according to the manufacturer's specifications in 384-well proxyplates (Perkin Elmer) followed by overnight incubation of the reactions at room temperature in a humidified chamber. After completion of the reactions, the signals were recorded on an EnVision plate reader (Perkin Elmer) using built in AlphaLISA® settings.
The effect of each compound dilution on the pERK signal was expressed in % inhibition and calculated as follows. An internal 100% inhibition control ([…] trametinib, cat #HY-10999; MedChem Express; CAS #871700-17-3) was included in each plate and used as a measure of pERK background. First, the value obtained for trametinib was subtracted from each data point. The average of DMSO (vehicle) controls (set as 0% inhibition) was established and used to calculate % inhibition: % inhibition=100*(1-((pERK signalcompound)/(pERK signalDMSO)))
as §5, with “pERK signal” for “proliferation”, “an IC50” for “a EC50”, “inhibition” for “effect”
When present, paradoxical pERK induction is inferred from the negative % inhibition values observed in the pERK IC50 curves of a compound.

[3] = system: pERK in SW480 cells (KRAS G12D); assay: Phospho-ERK inhibition (AlphaLISA), SW480; conditions: for SW480 pERK % Ymin: value in parentheses
Procedure, shortened: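 Overnight-seeded cells received compound for an hour before lysis, and phospho-ERK1/2 was then measured with an AlphaLISA SureFire Ultra kit. Percent inhibition relative to vehicle, after trametinib background subtraction, gave IC50 by curve fitting.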

SW480 cells (KRAS G12D) = assay: Proliferation inhibition (CellTiter-Glo), SW480; conditions: SW480, 3 days, read-out: SW480 Prolif. EC50
Protocol: as §1, §2, §3, §4, §5

IPC298 cells (NRAS-Q61L) = assay: Proliferation inhibition (CellTiter-Glo), IPC298; conditions: IPC298, 3 days, read-out: IPC298 Prolif. EC50
Protocol: as §1, §2, §3, §4, §5

| Structure (SMILES) | EC50 (A375 cells (BRAF V600E); Homo sapiens, A-375, 72 h) [nM] | EC50 ([1]; Homo sapiens, SK-MEL-30, 72 h) [nM] | IC50 ([2]; Homo sapiens, SK-MEL-30) [nM] | SK-MEL30 pERK % Ymin [2] [%] | IC50 ([3]; Homo sapiens, SW480, Table D) [nM] | SW480 pERK % Ymin ([3]; SW480, Table D) [%] | EC50 (SW480 cells (KRAS G12D); Homo sapiens, 72 h) [nM] | EC50 (IPC298 cells (NRAS-Q61L); Homo sapiens, IPC-298, 72 h) [nM] | EC50 (A375 cells (BRAF V600E)) [nM] | EC50 [1] [nM] | IC50 ([2]; SK-MEL30) [nM] | IC50 ([3]; SW480, Table D) [nM] | SW480 pERK Ymin % ([3]; SW480 cells, Ymin in brackets) [%] | IC50 ([3]; SW480 cells, class symbol before the bracket) [nM] | EC50 (SW480 cells (KRAS G12D)) [nM] | EC50 (IPC298 cells (NRAS-Q61L)) [nM] | IC50 ([3]; SW480 cells, class symbol) [nM] |
| --- | --- | --- | --- | --- | --- | --- | --- | --- | --- | --- | --- | --- | --- | --- | --- | --- | --- |
| Cc1ccc2c(Nc3cccc(Cl)c3F)nccc2c1NC(=O)c1csc2c(N)ncnc12 [Belvarafenib, reference compound] | < 30 | < 30 | < 30 | −45 | 30 to 300 | −100 | 300 to 3000 | < 30 |  |  |  |  |  |  |  |  |  |
| Nc1cccc2c1ncn2-c1ccc2ncnc(Nc3c(F)ccc(NS(=O)(=O)c4cccc(Cl)c4Cl)c3F)c2n1 [Example 99] |  |  |  | −1 |  | −7 |  |  | < 30 | < 30 | < 30 | 30 to 300 | −0.3 | < 500 | 300 to 3000 | < 30 |  |
| CC1(O)CCN(c2cccc3c2ncn3-c2ccc3ncnc(Nc4c(F)ccc(NS(=O)(=O)c5cccc(Cl)c5Cl)c4F)c3n2)CC1 [Example 524] |  |  |  | −13 |  | 0 |  |  | < 30 | < 30 | < 30 | 30 to 300 |  |  | 300 to 3000 | < 30 | < 500 |
